Results reported in ChEMBL document CHEMBL1122842, “Beta-adrenoceptor activity of the stereoisomers of the bufuralol alcohol and ketone metabolites” (J Med Chem, 1985).

Target: Beta-1 adrenergic receptor (Rattus norvegicus) (UniProt P18090)
Settings: Heart
Description: Beta-1 adrenergic receptor agonist activity as increased heart rate by 30 beats/min in rats

Chain of Beta-1 adrenergic receptor (Rattus norvegicus) (P18090 whole entry, looked up): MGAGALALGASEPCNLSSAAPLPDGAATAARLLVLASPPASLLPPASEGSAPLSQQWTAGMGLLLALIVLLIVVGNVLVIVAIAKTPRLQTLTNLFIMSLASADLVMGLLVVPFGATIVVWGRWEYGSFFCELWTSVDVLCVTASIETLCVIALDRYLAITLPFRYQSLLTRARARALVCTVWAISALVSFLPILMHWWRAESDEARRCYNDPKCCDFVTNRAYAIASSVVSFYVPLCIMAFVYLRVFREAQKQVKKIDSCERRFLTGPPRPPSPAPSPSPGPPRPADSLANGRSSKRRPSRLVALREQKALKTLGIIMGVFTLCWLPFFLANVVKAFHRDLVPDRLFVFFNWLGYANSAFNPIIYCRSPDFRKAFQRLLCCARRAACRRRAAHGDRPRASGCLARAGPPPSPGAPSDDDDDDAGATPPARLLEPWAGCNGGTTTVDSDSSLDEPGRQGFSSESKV

ED30 [mg/kg] | Structure (SMILES)
0.0006 | CC(=O)c1cccc2cc([C@@H](O)CNC(C)(C)C)oc12
0.032 | CC(=O)c1cccc2cc([C@H](O)CNC(C)(C)C)oc12
0.053 | CCc1cccc2cc([C@@H](O)CNC(C)(C)C)oc12
> 1 | CCc1cccc2cc([C@H](O)CNC(C)(C)C)oc12
0.019 | CC(O)c1cccc2cc([C@@H](O)CNC(C)(C)C)oc12 (stereo in doubt; form 1)
> 1 | CC(O)c1cccc2cc([C@H](O)CNC(C)(C)C)oc12 (stereo in doubt; form 1)
0.0007 | CC(O)c1cccc2cc([C@@H](O)CNC(C)(C)C)oc12 (stereo in doubt; form 2)
0.305 | CC(O)c1cccc2cc([C@H](O)CNC(C)(C)C)oc12 (stereo in doubt; form 2)
